± gives the expanded uncertainty stated by the source.
Test: wn = mass fraction of the nth substance listed
Details: 88.35 kPa, Liquid, Pycnometric method

[Cl-].[K+] [potassium chloride] + O
mass density (298.15 K, w1 = 0.2672): 1180 ± 12 kg/m3
mass density (313.15 K, w1 = 0.29): 1192 ± 12 kg/m3

Source: the NIST ThermoML archive (doi:10.1021/acs.jced.8b00081)
